{"source": "ChEMBL document CHEMBL1128937", "about": "“Coumarin-based prodrugs 2. Synthesis and bioreversibility studies of an esterase-sensitive cyclic prodrug of dadle, an opioid peptide” (Bioorg Med Chem Lett, 1996)", "tested_on": "esterase", "assay": "Half-life time was determined for esterase-catalyzed hydrolysis of the phenol ester bond in porcine liver esterase", "assay_type": "ADME, Sus scrofa", "conditions": "pig"}
{"smiles": "CC(C)C[C@H]1NC(=O)Oc2ccccc2/C=C\\C(=O)NC(=O)[C@H](Cc2ccc(O)cc2)NC(=O)[C@@H](C)NC(=O)CNC(=O)[C@H](Cc2ccccc2)NC1=O", "values": [{"measurement": "half-life", "result": 12.7, "unit": "h"}]}
